# From patent publication US20240317746A1, “CRYSTALLINE FORMS OF AN AZETIDINE PARP1 INHIBITOR” (XinThera, Inc., priority 2023, published 2024)
# “And” between values parts separate entries of the source, which are not always exact repeats. Identical values can stand only once. “Also recorded” adds a separate entry of the source. Counter-ions that a name gives are not always drawn.
# Experiments:
# [1] = Preliminary solubility test: estimated solubility at RT by visual observation; format: physicochemical
# Description: The solubility of Compound 1 (starting material) was estimated at RT in 18 single solvents and 6 solvent mixtures by visual observation. Approximately 5 mg solids were weighed into 8 mL glass vial, and then solvent was added stepwise until solids were dissolved completely or a total of solvent volume reached 5 mL. […] The solubility was estimated and for reference only.
# [2] = Polymorph screening (slurry conversion, cooling, evaporation, anti-solvent, cyclic heating-cooling, salt break); details: about 20 mg in 1 mL
# Description: Form I was obtained from most polymorph screening experiments. […]
# Cyclic heating-cooling experiments were carried out in Crystal 16 Parallel Crystallizer. About 20 mg of Compound 1 (starting material) was added into 1 mL solvents, and a heating-cooling program was performed: • 1. Equilibrated first at 20° C., and heated to 75 or 100° C. at 0.2° C./min (the elevated temperature is set according to boiling point of solvent). • 2. Held at 75 or 100° C. for 1 h. • 3. Cooled to 20° C. at 0.2° C./min and hold for 1 h. • 4. Repeated the above procedures once.
# Turbidimeter from Crystal 16 recorded if solids were completely dissolved during heating. Form I was obtained in most solvent systems. […]
# [3] = DVS test (dynamic vapor sorption, hygroscopicity); format: physicochemical; details: for hygroscopicity (in words): DVS
# Description: All the three target forms remained no change after DVS test.
# Dynamic Vapor Sorption (DVS) was used to study hygroscopicity on Model Q5000 SA (TA Instruments, New Castle, DE). A sample (1-10 mg) was placed in an aluminum pan and loaded on the sample side of the twin pan balance. The water sorption and desorption were studied as a function of relative humidity (RH) at 25° C. in 10% RH increments from 0% RH to 90% RH and then back to 0%. […] Data analysis was performed using Universal Analysis 2000 Version 4.7A (TA Instruments, New Castle, DE).
# [4] = Solid-state stability at 60° C. (capped) and 40° C./75% RH (open); format: physicochemical; details: for XRPD - 7 d / physical and chemical stability: 7 days; for physical and chemical stability: 60° C. (capped) and 40° C./75% RH (open); for Initial Purity: before storage, HPLC
# Description: (capped) and 40° C./75% RH (open) for 7 days. Duplicate samples were prepared at each condition. The stability sample was dissolved in diluent to prepare solution at ˜1 mg/mL for HPLC purity analysis. Solid samples were analyzed by XRPD to check the crystal form. […] (capped) and 40° C./75% RH (open) for at least 7 days.
# [5] = Solubility in bio-relevant media (SGF, FaSSIF, FeSSIF) and water; format: physicochemical; details: for XRPD 0.5 h / XRPD 2 h / XRPD 24 h: filter cake; for solubility compared to Freebase Form I (in words): water, FaSSIF and FeSSIF, 37° C.
# Description: At 0.5, 2 and 24 hours, about 0.6 mL of each suspension was filtered, the filtrate was analyzed by HPLC and pH meter, and the filter cake was analyzed by XRPD. The samples were prepared in duplicate (n=2) per condition. Average value (n=2) was presented.
# HPLC analysis was performed with an Agilent HPLC 1260 series instrument.
# [6] = FaSSIF, initial pH 6.45, 37° C., average n=2
# [7] = FaSSIF, initial pH 6.45, filtrate
# [8] = FeSSIF, initial pH 4.99, 37° C., average n=2
# [9] = FeSSIF, initial pH 4.99, filtrate
# [10] = Water, initial pH 5.41, 37° C., average n=2
# [11] = Water, initial pH 5.41, filtrate
# [12] = in FaSSIF and FeSSIF, XRPD of filter cake
smiles,measurement,setting,value
"C[C@@H]1[C@@H](Oc2ccc(C(=O)NC3CC3)nc2)CN1Cc1cnc2cc(Cl)c(=O)[nH]c2c1 [Compound 1, 5-(((2R,3S)-1-((7-chloro-6-oxo-5,6-dihydro-1,5-naphthyridin-3-yl)methyl)-2-methylazetidin-3-yl)oxy)-N-cyclopropylpicolinamide]",solubility,"[1]; DCM/MeOH (1/1), organic solvent or mixture, thermodynamic from solid, DCM/MeOH (1/1), read-out: Solubility",5000 to 20000 µg/mL
same,solubility,"[1]; DCM/MeOH (4/1), listed as Compound 1 (starting material)",50~100 mg/mL
same,solubility,"[1]; DMSO, DMF, DMAc (each), organic solvent or mixture, thermodynamic from solid, DMSO, DMF, DMAc, read-out: Solubility",20000 to 50000 µg/mL
same,solubility,"[1]; organic solvent or mixture, thermodynamic from solid, Acetone/Water (9/1), ACN/Water (9/1), MeOH/Water (9/1), Acetone/EtOH (1/1), THF, MeOH, read-out: Solubility",1000 to 5000 µg/mL
same,solubility,"[1]; water, thermodynamic from solid, EtOH, IPA, Acetone, EtOAc, ACN, Water, DCM, 2-MeTHF, Toluene, MTBE, MEK, Heptane, read-out: Solubility",< 1000 µg/mL
same,Hot Dissolution,"[2]; 2-MeTHF, 75° C.",Yes
same,Hot Dissolution,"[2]; ACN/Water (9/1), 75° C.",No
same,Hot Dissolution,"[2]; DMAc/Toluene (1/2), 100° C.",Yes
same,Hot Dissolution,"[2]; EtOH, 75° C.",Yes
same,Hot Dissolution,"[2]; MEK, 75° C.",No
same,Hot Dissolution,"[2]; MIBK, 100° C.",No
same,Hot Dissolution,"[2]; n-Butanol/Anisole (1/1), 100° C.",Yes
"C[C@@H]1[C@@H](Oc2ccc(C(=O)NC3CC3)nc2)CN1Cc1cnc2cc(Cl)c(=O)[nH]c2c1 [Hemiedisylate Salt Form II, 5-(((2R,3S)-1-((7-chloro-6-oxo-5,6-dihydro-1,5-naphthyridin-3-yl)methyl)-2-methylazetidin-3-yl)oxy)-N-cyclopropylpicolinamide]",hygroscopicity (in words),[3],hygroscopic
same,water uptake,[3]; from 0 to 90% RH at 25° C.,about 3.6%
"C[C@@H]1[C@@H](Oc2ccc(C(=O)NC3CC3)nc2)CN1Cc1cnc2cc(Cl)c(=O)[nH]c2c1 [L-Malate Salt Form II, 5-(((2R,3S)-1-((7-chloro-6-oxo-5,6-dihydro-1,5-naphthyridin-3-yl)methyl)-2-methylazetidin-3-yl)oxy)-N-cyclopropylpicolinamide]",hygroscopicity (in words),[3],hygroscopic
same,water uptake,[3]; from 0 to 90% RH at 25° C.,about 4.6%
"C[C@@H]1[C@@H](Oc2ccc(C(=O)NC3CC3)nc2)CN1Cc1cnc2cc(Cl)c(=O)[nH]c2c1 [L-Tartrate Salt Form II, 5-(((2R,3S)-1-((7-chloro-6-oxo-5,6-dihydro-1,5-naphthyridin-3-yl)methyl)-2-methylazetidin-3-yl)oxy)-N-cyclopropylpicolinamide]",hygroscopicity (in words),[3],hygroscopic
same,water uptake,[3]; from 0 to 90% RH at 25° C.,about 10.2%
"C[C@@H]1[C@@H](Oc2ccc(C(=O)NC3CC3)nc2)CN1Cc1cnc2cc(Cl)c(=O)[nH]c2c1 [Maleate Form IV, 5-(((2R,3S)-1-((7-chloro-6-oxo-5,6-dihydro-1,5-naphthyridin-3-yl)methyl)-2-methylazetidin-3-yl)oxy)-N-cyclopropylpicolinamide]",hygroscopicity (in words),[3],slightly hygroscopic
same,water uptake,[3]; at 80% RH,< 1% and 0.6%
same,water uptake,[3]; at 90% RH,0.9%
same,XRPD - 7 d,[4]; 40° C./75% RH (open),Unchanged
same,physical and chemical stability,[4],physically and chemically stable
same,XRPD - 7 d,[4]; 60° C. (capped),Unchanged
same,Initial Purity,[4],99.72 area %
same,XRPD 0.5 h,[5]; FaSSIF,FB Form I
same,XRPD 2 h,[5]; FaSSIF,FB Form I
same,XRPD 24 h,[5]; FaSSIF,FB Form I
same,Solubility 0.5 h,[5]; [6],397 µg/mL
same,Solubility 2 h,[5]; [6],410 µg/mL
same,Solubility 24 h,[5]; [6],373 µg/mL
same,pH 0.5 h,[5]; [7],4.58
same,pH 2 h,[5]; [7],4.46
same,pH 24 h,[5]; [7],4.43
same,solubility at 24 h,"[5]; FeSSIF, 37 °C, pH 4.99, fessif, thermodynamic from solid, initial pH 4.99, 37° C., average n=2",131 µg/mL
same,XRPD 0.5 h,[5]; FeSSIF,FB Form I
same,XRPD 2 h,[5]; FeSSIF,FB Form I
same,XRPD 24 h,[5]; FeSSIF,FB Form I
same,Solubility 0.5 h,[5]; [8],369 µg/mL
same,Solubility 2 h,[5]; [8],159 µg/mL
same,pH 0.5 h,[5]; [9],4.82
same,pH 2 h,[5]; [9],4.82
same,pH 24 h,[5]; [9],4.79
same,"XRPD 0.5 h, 2 h, 24 h",[5]; SGF,Clear
same,solubility,"[5]; SGF, 37 °C, pH 1.23, simulated gastric fluid, thermodynamic from solid, SGF, initial pH 1.23, 37° C., read-out: Solubility 0.5 h, 2 h, 24 h",> 5000 µg/mL
same,pH 0.5 h,"[5]; SGF, initial pH 1.23, filtrate",1.33
same,pH 2 h,"[5]; SGF, initial pH 1.23, filtrate",1.17
same,pH 24 h,"[5]; SGF, initial pH 1.23, filtrate",1.22
same,"XRPD 0.5 h, 2 h, 24 h",[5]; Water,Little solid
same,Solubility 0.5 h,[5]; [10],4527 µg/mL
same,Solubility 2 h,[5]; [10],4494 µg/mL
same,Solubility 24 h,[5]; [10],3797 µg/mL
same,pH 0.5 h,[5]; [11],3.81
same,pH 2 h,[5]; [11],3.75
same,pH 24 h,[5]; [11],3.90
same,form change of the solid,[5]; [12],dissociated into Freebase Form I
same,solubility compared to Freebase Form I (in words),[5],improved solubility
"C[C@@H]1[C@@H](Oc2ccc(C(=O)NC3CC3)nc2)CN1Cc1cnc2cc(Cl)c(=O)[nH]c2c1 [Sulfate Salt Form III, 5-(((2R,3S)-1-((7-chloro-6-oxo-5,6-dihydro-1,5-naphthyridin-3-yl)methyl)-2-methylazetidin-3-yl)oxy)-N-cyclopropylpicolinamide]",hygroscopicity (in words),[3],hygroscopic
same,water uptake,[3]; from 0 to 90% RH at 25° C.,about 6%
"C[C@@H]1[C@@H](Oc2ccc(C(=O)NC3CC3)nc2)CN1Cc1cnc2cc(Cl)c(=O)[nH]c2c1 [Tartrate Form I, 5-(((2R,3S)-1-((7-chloro-6-oxo-5,6-dihydro-1,5-naphthyridin-3-yl)methyl)-2-methylazetidin-3-yl)oxy)-N-cyclopropylpicolinamide]",hygroscopicity (in words),[3],slightly hygroscopic
same,hygroscopicity (in words),[3]; listed as Tartrate Salt Form I,slightly hygroscopic
same,water uptake,[3]; at 80% RH,< 1% and 0.8%
same,water uptake,[3]; at 90% RH,1.4%
same,water uptake,"[3]; from 0 to 90% RH at 25° C., listed as Tartrate Salt Form I",about 1.1%
same,XRPD - 7 d,[4]; 40° C./75% RH (open),Unchanged
same,physical and chemical stability,[4],physically and chemically stable
same,XRPD - 7 d,[4]; 60° C. (capped),Unchanged
same,Initial Purity,[4],99.64 area %
same,XRPD 0.5 h,[5]; FaSSIF,Amorphous
same,XRPD 2 h,[5]; FaSSIF,FB Form I
same,XRPD 24 h,[5]; FaSSIF,FB Form I
same,Solubility 0.5 h,[5]; [6],2088 µg/mL
same,Solubility 2 h,[5]; [6],1320 µg/mL
same,Solubility 24 h,[5]; [6],980 µg/mL
same,pH 0.5 h,[5]; [7],3.98
same,pH 2 h,[5]; [7],3.81
same,pH 24 h,[5]; [7],3.69
same,XRPD 0.5 h,[5]; FeSSIF,Amorphous
same,XRPD 2 h,[5]; FeSSIF,FB Form I
same,XRPD 24 h,[5]; FeSSIF,FB Form I
same,Solubility 0.5 h,[5]; [8],496 µg/mL
same,Solubility 2 h,[5]; [8],207 µg/mL
same,Solubility 24 h,[5]; [8],144 µg/mL
same,pH 0.5 h,[5]; [9],4.71
same,pH 2 h,[5]; [9],4.71
same,pH 24 h,[5]; [9],4.70
same,"XRPD 0.5 h, 2 h, 24 h",[5]; SGF,Clear
same,"Solubility 0.5 h, 2 h, 24 h","[5]; SGF, initial pH 1.23, 37° C.",>5000 µg/mL
same,pH 0.5 h,"[5]; SGF, initial pH 1.23, filtrate",1.32
same,pH 2 h,"[5]; SGF, initial pH 1.23, filtrate",1.17
same,pH 24 h,"[5]; SGF, initial pH 1.23, filtrate",1.25
same,XRPD 0.5 h,[5]; Water,Unchanged
same,XRPD 2 h,[5]; Water,Unchanged
same,Solubility 0.5 h,[5]; [10],4288 µg/mL
same,Solubility 2 h,[5]; [10],4422 µg/mL
same,Solubility 24 h,[5]; [10],293 µg/mL
same,pH 0.5 h,[5]; [11],3.63
same,pH 2 h,[5]; [11],3.58
same,pH 24 h,[5]; [11],3.73
same,form change of the solid,[5]; [12],dissociated into Freebase Form I
same,conversion rate to the freebase (in words),"[5]; in FaSSIF and FeSSIF, compared with Maleate Form IV",slower conversion rate; also recorded: slower form conversion
same,form change of the solid,[5]; in water at 24 h,converted into a new pattern
same,solubility compared to Freebase Form I (in words),[5],improved solubility
